The source of these data is PubChem BioAssay (NCI).

Among the test systems are RPMI-8226 leukemia; HOP-62 NSCLC; NCI-H522 lung; SK-OV-3 ovarian; BT-549 breast; CCRF-CEM leukemia; DU-145 prostate; SW-620 colon.
Common to all, as to experiment: NCI anticancer screen, dose series, 48 h

Each structure is given as a SMILES string.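 The compound was tested at five concentrations on cells cultured in 96-well plates, with a 48-hour exposure period. Abbreviation: GI50, concentration required for 50% inhibition of growth. Definition used: TGI = concentration required for complete inhibition of growth.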 A value given as a limit tells only on which side of the number the result lay.

Regarding `CNC(=O)c1ccc(N2C(=S)N(c3cnc(C#N)c(C(F)(F)F)c3)C(=O)C23CCC3)cc1F`, the GI50 in the experiment on RPMI-8226 leukemia is 59300 nM; in the experiment with HOP-62 NSCLC, more than 100000 nM; with NCI-H522 lung, more than 100000 nM; in the experiment with SK-OV-3 ovarian it was more than 100 µM; in the experiment on BT-549 breast, more than 77000 nM; in the experiment with CCRF-CEM leukemia, more than 100000 nM. Also, the GI50 with DU-145 prostate is more than 100 µM; with SW-620 colon, more than 100000 nM. For the same molecule, the TGI in the experiment on RPMI-8226 leukemia, in the experiment on HOP-62 NSCLC, in the experiment with NCI-H522 lung, in the experiment with SK-OV-3 ovarian, in the experiment with BT-549 breast and in the experiment with CCRF-CEM leukemia was more than 100 µM each time. Besides, the TGI in the experiment with DU-145 prostate and in the experiment on SW-620 colon was more than 100 µM each time.

As to `Cc1onc(-c2ccccc2)c1C(=O)N/N=C/c1cc(Cl)cc(Cl)c1O`, the GI50 was 5610 nM in the experiment with RPMI-8226 leukemia; 6040 nM in the experiment with HOP-62 NSCLC; 3670 nM with NCI-H522 lung; 7.82 µM in the experiment on SK-OV-3 ovarian; 12100 nM in the experiment on BT-549 breast; 1480 nM with CCRF-CEM leukemia. The GI50 is 6.72 µM in the experiment with DU-145 prostate and 6810 nM in the experiment with SW-620 colon. Besides, the TGI turned out to be 49.7 µM with RPMI-8226 leukemia; 55.7 µM in the experiment with HOP-62 NSCLC; 33.6 µM with NCI-H522 lung; 50.7 µM in the experiment with SK-OV-3 ovarian; 49.4 µM in the experiment with BT-549 breast; 14.7 µM in the experiment on CCRF-CEM leukemia. Besides, the TGI with DU-145 prostate and in the experiment on SW-620 colon was more than 100 µM each time.

As for `O=C(CN(/C=C/C(=O)C(F)(F)F)c1ccc(Cl)cc1)c1ccc(Cl)cc1`, the GI50 was 11500 nM in the experiment with RPMI-8226 leukemia; 32800 nM in the experiment with HOP-62 NSCLC; 2100 nM in the experiment on NCI-H522 lung; 17.9 µM in the experiment on SK-OV-3 ovarian; 17600 nM with BT-549 breast; 5110 nM in the experiment on CCRF-CEM leukemia. Besides, the figures for the GI50 in the experiment with DU-145 prostate and in the experiment on SW-620 colon were 15.1 µM and 10200 nM, respectively. The TGI in the experiment on RPMI-8226 leukemia is 37.7 µM; in the experiment with HOP-62 NSCLC, more than 100 µM; in the experiment with NCI-H522 lung it was 5.93 µM; in the experiment on SK-OV-3 ovarian it was 33.5 µM; in the experiment with BT-549 breast, 43.9 µM; in the experiment with CCRF-CEM leukemia, 24.4 µM. The TGI stood at 29.5 µM with DU-145 prostate and 23.7 µM in the experiment with SW-620 colon.

For `CC(=O)O[C@@H]1C2CCC3C(CC[C@@]4(C)C3CC[C@@H]4C(C)N(C)C)[C@@]2(C)CC[C@@H]1NC(=O)C=C(C)C` (stereo partly drawn), the GI50 is 1960 nM with RPMI-8226 leukemia; 2250 nM with HOP-62 NSCLC; 2740 nM in the experiment with NCI-H522 lung; 3.61 µM in the experiment with SK-OV-3 ovarian; 6310 nM in the experiment with BT-549 breast; 2070 nM with CCRF-CEM leukemia. Further, the values for the GI50 in the experiment with DU-145 prostate and with SW-620 colon were 4 µM and 1730 nM, respectively. In addition, the TGI with RPMI-8226 leukemia came to 5.53 µM; with HOP-62 NSCLC it was 5.62 µM; in the experiment on NCI-H522 lung, 8.58 µM; in the experiment with SK-OV-3 ovarian, 10.3 µM; in the experiment on BT-549 breast, 22.5 µM; with CCRF-CEM leukemia it was 6.59 µM. Also, the TGI with DU-145 prostate stood at 16.4 µM; in the experiment on SW-620 colon, 3.48 µM.

On to `O=C(O)CSc1n[nH]c(=O)[nH]c1=O`, for which the TGI in the experiment with RPMI-8226 leukemia, in the experiment on HOP-62 NSCLC, in the experiment with NCI-H522 lung, in the experiment with SK-OV-3 ovarian, with BT-549 breast and in the experiment on CCRF-CEM leukemia was more than 100 µM each time. The TGI in the experiment with DU-145 prostate and in the experiment on SW-620 colon was more than 100 µM in each case.

Turning to `NS(=O)(=O)OC[C@H]1C[C@@H](Nc2ccnc3cc(-c4cccc(SC(F)(F)F)c4)nn23)[C@H](O)[C@@H]1O`, the GI50 with RPMI-8226 leukemia is 641 nM; with HOP-62 NSCLC, 17.3 nM; in the experiment on NCI-H522 lung it was 18.4 nM; in the experiment with SK-OV-3 ovarian, 0.0271 µM; in the experiment with BT-549 breast, 19.3 nM; with CCRF-CEM leukemia, less than 18.1 nM. Further, the GI50 in the experiment on DU-145 prostate was 0.029 µM; in the experiment on SW-620 colon, 42.2 nM. Further, the TGI turned out to be 3 µM with RPMI-8226 leukemia; 0.0489 µM in the experiment on HOP-62 NSCLC; 0.0363 µM in the experiment with NCI-H522 lung; 0.0769 µM in the experiment with SK-OV-3 ovarian; 0.0484 µM with BT-549 breast; 13.2 µM with CCRF-CEM leukemia. For the same molecule, the TGI was found to be 0.19 µM in the experiment on DU-145 prostate and 1.37 µM in the experiment on SW-620 colon.

Take `Nc1nc(/C=C\c2ccc([N+](=O)[O-])s2)nc(N2CCN(c3ccccc3)CC2)n1`: the GI50 with RPMI-8226 leukemia was 22900 nM; in the experiment on HOP-62 NSCLC it was 29000 nM; with NCI-H522 lung, 16000 nM; with SK-OV-3 ovarian it was 30.7 µM; with BT-549 breast, 21800 nM; in the experiment on CCRF-CEM leukemia, 29300 nM. Moreover, the GI50 was 21.9 µM with DU-145 prostate and 6300 nM with SW-620 colon. In addition, the TGI in the experiment with RPMI-8226 leukemia turned out to be 74 µM; in the experiment on HOP-62 NSCLC, 64.3 µM; in the experiment with NCI-H522 lung, 31.5 µM; in the experiment with SK-OV-3 ovarian, 62.5 µM; with BT-549 breast, 48 µM; with CCRF-CEM leukemia it was 79.1 µM. Besides, the TGI with DU-145 prostate stood at 51.4 µM; in the experiment on SW-620 colon, 27.9 µM.

With `Oc1ccc(C=Nc2ccccc2O)cc1`, the TGI in the experiment with RPMI-8226 leukemia, in the experiment on HOP-62 NSCLC, in the experiment on NCI-H522 lung, with SK-OV-3 ovarian, in the experiment on BT-549 breast and in the experiment with CCRF-CEM leukemia was more than 100 µM in each case. The TGI was 31.6 µM in the experiment with DU-145 prostate and more than 100 µM in the experiment on SW-620 colon.

With `CC1Cc2c(Cl)ncnc2N(C)c2ccc(Cl)cc21` (stereo not drawn), the GI50 is 441 nM with RPMI-8226 leukemia; 339 nM in the experiment on HOP-62 NSCLC; 232 nM in the experiment on NCI-H522 lung; 0.372 µM with SK-OV-3 ovarian; 309 nM with BT-549 breast; 510 nM with CCRF-CEM leukemia. For the same molecule, the values for the GI50 in the experiment with DU-145 prostate and in the experiment on SW-620 colon were 0.589 µM and 335 nM, respectively. Also, the TGI is 17.1 µM with RPMI-8226 leukemia; 11.1 µM with HOP-62 NSCLC; 0.776 µM in the experiment with NCI-H522 lung; 12.9 µM in the experiment with SK-OV-3 ovarian; 11.1 µM with BT-549 breast; more than 100 µM in the experiment with CCRF-CEM leukemia. In addition, the values for the TGI in the experiment on DU-145 prostate and in the experiment with SW-620 colon were more than 100 µM and 4.74 µM, respectively.

`COc1ccc2c(c1)C(=O)c1c-2n(CCCN(C)C)c(=O)c2ccccc12`: the GI50 with RPMI-8226 leukemia is 165 nM; in the experiment with HOP-62 NSCLC, 433 nM; in the experiment with NCI-H522 lung, 188 nM; in the experiment with SK-OV-3 ovarian it was 0.382 µM; with BT-549 breast, 521 nM; in the experiment with CCRF-CEM leukemia, 77 nM. In addition, the GI50 in the experiment on DU-145 prostate was 0.249 µM; in the experiment with SW-620 colon, 160 nM. Further, the TGI in the experiment with RPMI-8226 leukemia stood at 0.532 µM; in the experiment on HOP-62 NSCLC, 11.2 µM; in the experiment on NCI-H522 lung, 4.04 µM; in the experiment on SK-OV-3 ovarian, 3.14 µM; with BT-549 breast it was 3.11 µM; in the experiment with CCRF-CEM leukemia, 0.629 µM. Also, the figures for the TGI in the experiment with DU-145 prostate and with SW-620 colon were 2.82 µM and 3.93 µM, respectively.

As for `COc1ccc(C2(Cl)c3ccccc3N(c3ccccc3)c3ccccc32)cc1`, the GI50 was 218 nM in the experiment on RPMI-8226 leukemia; 411 nM with HOP-62 NSCLC; 444 nM in the experiment with NCI-H522 lung; 0.495 µM with SK-OV-3 ovarian; 211 nM in the experiment with BT-549 breast; 1990 nM in the experiment with CCRF-CEM leukemia. The GI50 in the experiment with DU-145 prostate is 0.536 µM; in the experiment on SW-620 colon it was 370 nM. The TGI in the experiment with RPMI-8226 leukemia came out at 1.36 µM; in the experiment with HOP-62 NSCLC it was 2.76 µM; in the experiment with NCI-H522 lung it was 2.94 µM; with SK-OV-3 ovarian it was 2.74 µM; in the experiment with BT-549 breast, 1.42 µM; with CCRF-CEM leukemia, 13.8 µM. For the same molecule, the TGI stood at 2.04 µM with DU-145 prostate and 1.69 µM in the experiment on SW-620 colon.

As to `Fc1ccc(-c2c(-c3ccncc3)nc3n2CCS3)cc1`, the GI50 in the experiment on RPMI-8226 leukemia was more than 25000 nM; in the experiment with HOP-62 NSCLC, more than 25000 nM; in the experiment on NCI-H522 lung, more than 25000 nM; with SK-OV-3 ovarian it was more than 25 µM; in the experiment with BT-549 breast, more than 25000 nM; with CCRF-CEM leukemia, more than 25000 nM. Moreover, the GI50 in the experiment on DU-145 prostate was more than 25 µM; with SW-620 colon it was more than 25000 nM. In addition, the TGI in the experiment on RPMI-8226 leukemia, in the experiment on HOP-62 NSCLC, in the experiment with NCI-H522 lung, with SK-OV-3 ovarian, with BT-549 breast and in the experiment on CCRF-CEM leukemia was more than 25 µM each time. The TGI in the experiment with DU-145 prostate and with SW-620 colon was more than 25 µM throughout.

Consider `Cc1cc2c(C(=O)NC[C@H](C)c3ccccc3)c(O)c(O)cc2c(O)c1-c1c(C)cc2c(C(=O)NC[C@H](C)c3ccccc3)c(O)c(O)cc2c1O`, for which the GI50 was 185 nM in the experiment on RPMI-8226 leukemia; 301 nM in the experiment with HOP-62 NSCLC; 288 nM in the experiment on NCI-H522 lung; 0.431 µM in the experiment on SK-OV-3 ovarian; 43.7 nM in the experiment with BT-549 breast; 122 nM in the experiment with CCRF-CEM leukemia. The results for the GI50 in the experiment on DU-145 prostate and in the experiment with SW-620 colon were 0.3 µM and 482 nM, respectively. Also, the TGI was determined as 5.41 µM in the experiment with RPMI-8226 leukemia; 2.15 µM in the experiment on HOP-62 NSCLC; 1.18 µM in the experiment on NCI-H522 lung; 2.8 µM with SK-OV-3 ovarian; 2.03 µM in the experiment on BT-549 breast; 11 µM with CCRF-CEM leukemia. The values for the TGI in the experiment on DU-145 prostate and in the experiment with SW-620 colon were 14.3 µM and 5.7 µM, respectively.

As to `O=C1Nc2c(ccc(Cl)c2Cl)/C1=C/c1cc(Br)c(O)c(Br)c1`, the GI50 in the experiment on RPMI-8226 leukemia is 2610 nM; in the experiment on HOP-62 NSCLC it was 11900 nM; with NCI-H522 lung, 3060 nM; with SK-OV-3 ovarian, 4.88 µM; in the experiment with BT-549 breast it was 2920 nM; in the experiment with CCRF-CEM leukemia it was 3950 nM. For the same molecule, the GI50 is 14.3 µM in the experiment on DU-145 prostate and 4670 nM in the experiment with SW-620 colon. Moreover, the TGI in the experiment with RPMI-8226 leukemia was 67.7 µM; in the experiment with HOP-62 NSCLC it was more than 68 µM; with NCI-H522 lung, more than 28.6 µM; in the experiment on SK-OV-3 ovarian, 30.4 µM; with BT-549 breast, 17.5 µM; with CCRF-CEM leukemia, more than 65.4 µM. Besides, the TGI in the experiment on DU-145 prostate and with SW-620 colon was more than 100 µM each time.
